# Measured values taken from ChEMBL document CHEMBL5252520, “Inhibition of phospho-MurNAc-pentapeptide translocase (MraY) by nucleoside natural product antibiotics, bacteriophage ϕX174 lysis protein E, and cationic antibacterial peptides” (Bioorg Med Chem, 2016).
# pIC50: −log10 of the molar value. Residues, ends and D or L forms follow the SMILES beside them.
# Tests used:
# [1] = Inhibition of bacterial MraY; design: species or system Bacteria
# Pseudomonas aeruginosa [2] = experiment: Antibacterial activity against Pseudomonas aeruginosa H103 assessed as reduction in bacterial growth; assay type: functional
# Escherichia coli = experiment: Antibacterial activity against Escherichia coli assessed as inhibition of bacterial growth; assay type: functional
# Pseudomonas aeruginosa [3] = experiment: Antibacterial activity against Pseudomonas aeruginosa H103 assessed as inhibition of bacterial growth; assay type: functional
# [4] = target: T1, Phospho-N-acetylmuramoyl-pentapeptide-transferase (Escherichia coli, UniProt E2QF15); experiment: Inhibition of MraY in Escherichia coli
# T1 sequence (E2QF15 whole entry): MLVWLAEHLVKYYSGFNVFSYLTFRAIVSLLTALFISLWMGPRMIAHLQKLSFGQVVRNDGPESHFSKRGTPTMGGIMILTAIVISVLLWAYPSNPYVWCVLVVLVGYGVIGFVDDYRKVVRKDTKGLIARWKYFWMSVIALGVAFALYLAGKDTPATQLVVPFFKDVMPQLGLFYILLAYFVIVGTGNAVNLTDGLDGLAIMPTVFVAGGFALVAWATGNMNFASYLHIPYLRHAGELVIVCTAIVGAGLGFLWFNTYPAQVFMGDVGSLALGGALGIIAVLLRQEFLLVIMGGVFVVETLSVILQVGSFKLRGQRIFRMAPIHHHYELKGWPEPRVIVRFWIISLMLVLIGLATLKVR
# Staphylococcus aureus = experiment: Antibacterial activity against Staphylococcus aureus ATCC 29213 assessed as bacterial growth inhibition; assay type: functional
pIC50 [1],MIC (Pseudomonas aeruginosa [2]) [µg/mL],MIC (Escherichia coli) [µg/mL],MIC (Pseudomonas aeruginosa [3]) [µg/mL],pIC50 [4],MIC (Staphylococcus aureus) [µg/mL],Structure (SMILES)
4.40,31,4,31,–,–,CC[C@H](C)[C@H](NC(=O)[C@H](Cc1c[nH]c2ccccc12)NC(=O)[C@@H](NC(=O)[C@@H](NC(=O)[C@H](CCCNC(=N)N)NC(=O)[C@H](Cc1c[nH]c2ccccc12)NC(=O)[C@H](Cc1c[nH]c2ccccc12)NC(=O)[C@@H](N)CCCNC(=N)N)[C@@H](C)CC)C(C)C)C(=O)N[C@@H](CCCCN)C(=O)N[C@@H](Cc1c[nH]c2ccccc12)C(=O)N[C@@H](Cc1c[nH]c2ccccc12)C(=O)N[C@@H](CCCNC(=N)N)C(=O)O (H-RWWRIVWIKWWR-OH)
–,–,–,–,6.10,–,CC[C@@H](C)[C@H](NC(=O)[C@H](CC(C)C)NC(=O)[C@H](CC(C)C)NC(=O)[C@H](CO)NC(=O)[C@@H]1CCCN1C(=O)[C@H](CC(C)C)NC(=O)[C@H](CC(C)C)NC(=O)[C@H](CC(C)C)NC(=O)[C@H](CO)NC(=O)[C@H](CC(C)C)NC(=O)[C@H](CC(C)C)NC(=O)[C@H](CC(C)C)NC(=O)[C@H](CC(C)C)NC(=O)[C@H](Cc1ccccc1)NC(=O)[C@H](C)NC(=O)[C@H](CC(C)C)NC(=O)[C@@H](NC(=O)[C@H](CC(=O)O)NC(=O)[C@H](Cc1c[nH]c2ccccc12)NC(=O)[C@H](CC(C)C)NC(=O)[C@@H](NC(=O)[C@H](Cc1c[nH]c2ccccc12)NC(=O)[C@H](CCCNC(=N)N)NC(=O)[C@@H](NC(=O)[C@@H](N)CCSC)C(C)C)[C@@H](C)O)[C@@H](C)O)C(=O)N[C@@H](CCSC)C(=O)N[C@@H](Cc1ccccc1)C(=O)N[C@H](C(=O)N1CCC[C@H]1C(=O)N[C@@H](CO)C(=O)N[C@H](C(=O)N[C@@H](Cc1ccccc1)C(=O)N[C@@H](CCCCN)C(=O)N[C@@H](CCCNC(=N)N)C(=O)N1CCC[C@H]1C(=O)N[C@H](C(=O)N[C@@H](CO)C(=O)O)C(C)C)[C@@H](C)O)[C@@H](C)CC
3.23,–,–,–,–,30,CC(C)C[C@H](NC(=O)CNC(=O)[C@H](Cc1c[nH]c2ccccc12)NC(=O)[C@@H](N)CCCNC(=N)N)C(=O)N[C@@H](Cc1c[nH]c2ccccc12)C(=O)O (H-RWGLW-OH)
